Key:
human TLR9 = human TLR9 (Homo sapiens (Human), UniProt Q9NR96); assay: TLR9 inhibition reporter assay (HEK-Blue SEAP); settings: read-out: TLR9 IC50; HEK-Blue cells overexpressing human TLR9, ODN2006 5 nM stimulation, SEAP reporter;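 further: SEAP driven by an IFN-β minimal promoter with NF-κB and AP-1 sites, read after 22 h, compounds dosed 0.05 nM–50 µM, inhibition scaled between agonist plus DMSO and reference-inhibitor wells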
human TLR8 = human TLR8 (Homo sapiens (Human), UniProt Q9NR97); assay: TLR8 inhibition reporter assay (HEK-Blue SEAP); settings: read-out: TLR8 IC50; HEK-Blue cells overexpressing human TLR8, R848 15.9 μM stimulation, SEAP reporter;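 further: SEAP driven by IFN-β minimal promoter carrying NF-κB and AP-1 sites, compounds dosed 0.05 nM to 50 µM for 22 h, inhibition scaled between agonist-plus-DMSO and reference-inhibitor wells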
human TLR7 = human TLR7 (Homo sapiens (Human), UniProt Q9NYK1); assay: TLR7 inhibition reporter assay (HEK-Blue SEAP); assay type: cell-based; settings: HEK-Blue cells overexpressing human TLR7, gardiquimod 7.5 μM stimulation, SEAP reporter
Sequence of human TLR7 (Q9NYK1 27-1049): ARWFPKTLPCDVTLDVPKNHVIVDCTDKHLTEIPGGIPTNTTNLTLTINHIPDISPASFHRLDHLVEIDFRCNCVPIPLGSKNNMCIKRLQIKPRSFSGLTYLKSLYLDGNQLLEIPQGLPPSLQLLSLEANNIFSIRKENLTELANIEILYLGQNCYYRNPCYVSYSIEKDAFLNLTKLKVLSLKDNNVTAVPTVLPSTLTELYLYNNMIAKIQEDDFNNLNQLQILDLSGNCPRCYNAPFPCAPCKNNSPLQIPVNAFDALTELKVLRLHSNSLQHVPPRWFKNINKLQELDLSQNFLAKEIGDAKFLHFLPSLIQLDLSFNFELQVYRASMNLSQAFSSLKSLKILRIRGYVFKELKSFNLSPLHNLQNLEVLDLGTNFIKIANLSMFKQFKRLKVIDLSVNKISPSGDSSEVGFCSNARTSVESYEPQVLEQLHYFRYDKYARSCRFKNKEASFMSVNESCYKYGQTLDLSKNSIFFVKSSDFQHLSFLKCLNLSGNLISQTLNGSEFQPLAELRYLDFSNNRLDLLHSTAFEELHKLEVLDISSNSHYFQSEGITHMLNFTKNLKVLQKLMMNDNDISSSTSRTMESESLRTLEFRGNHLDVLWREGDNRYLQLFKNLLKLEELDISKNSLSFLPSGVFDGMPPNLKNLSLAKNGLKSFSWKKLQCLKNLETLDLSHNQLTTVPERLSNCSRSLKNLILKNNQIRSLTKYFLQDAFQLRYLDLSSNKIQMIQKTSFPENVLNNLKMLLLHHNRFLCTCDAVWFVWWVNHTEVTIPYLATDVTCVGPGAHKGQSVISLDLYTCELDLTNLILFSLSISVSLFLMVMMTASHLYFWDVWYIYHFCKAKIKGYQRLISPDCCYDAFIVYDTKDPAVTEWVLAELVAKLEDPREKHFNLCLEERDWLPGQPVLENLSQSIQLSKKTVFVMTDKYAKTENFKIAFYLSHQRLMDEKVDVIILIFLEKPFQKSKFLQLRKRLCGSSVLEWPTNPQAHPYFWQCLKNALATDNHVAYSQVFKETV

Sequence of human TLR9 (Q9NR96 26-1032): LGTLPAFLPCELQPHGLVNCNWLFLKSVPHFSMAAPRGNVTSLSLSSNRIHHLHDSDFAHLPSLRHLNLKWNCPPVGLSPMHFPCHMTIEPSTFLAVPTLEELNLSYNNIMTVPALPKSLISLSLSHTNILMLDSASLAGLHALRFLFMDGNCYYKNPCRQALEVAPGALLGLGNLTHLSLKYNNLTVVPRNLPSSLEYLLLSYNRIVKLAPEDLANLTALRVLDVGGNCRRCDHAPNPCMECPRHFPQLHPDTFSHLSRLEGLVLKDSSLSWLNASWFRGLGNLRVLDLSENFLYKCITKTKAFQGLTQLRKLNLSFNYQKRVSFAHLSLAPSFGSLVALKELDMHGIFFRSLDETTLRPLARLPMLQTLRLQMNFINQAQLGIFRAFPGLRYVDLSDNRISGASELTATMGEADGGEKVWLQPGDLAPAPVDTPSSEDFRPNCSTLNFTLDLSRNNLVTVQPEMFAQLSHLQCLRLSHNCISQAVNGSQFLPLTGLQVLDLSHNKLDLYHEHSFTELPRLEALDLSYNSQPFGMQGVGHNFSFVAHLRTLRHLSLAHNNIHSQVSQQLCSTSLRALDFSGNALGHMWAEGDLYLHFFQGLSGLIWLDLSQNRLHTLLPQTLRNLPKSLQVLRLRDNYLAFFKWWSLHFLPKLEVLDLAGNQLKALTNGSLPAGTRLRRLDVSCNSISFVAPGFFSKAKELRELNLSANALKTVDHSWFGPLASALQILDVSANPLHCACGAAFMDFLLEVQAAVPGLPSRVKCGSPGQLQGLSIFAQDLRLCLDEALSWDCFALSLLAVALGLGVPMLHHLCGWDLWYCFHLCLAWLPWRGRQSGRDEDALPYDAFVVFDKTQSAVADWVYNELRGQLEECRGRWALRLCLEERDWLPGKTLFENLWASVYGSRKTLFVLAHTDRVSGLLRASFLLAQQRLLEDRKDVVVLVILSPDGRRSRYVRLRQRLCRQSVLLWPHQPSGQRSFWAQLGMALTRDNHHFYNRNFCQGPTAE
Sequence of human TLR8 (Q9NR97 27-1041): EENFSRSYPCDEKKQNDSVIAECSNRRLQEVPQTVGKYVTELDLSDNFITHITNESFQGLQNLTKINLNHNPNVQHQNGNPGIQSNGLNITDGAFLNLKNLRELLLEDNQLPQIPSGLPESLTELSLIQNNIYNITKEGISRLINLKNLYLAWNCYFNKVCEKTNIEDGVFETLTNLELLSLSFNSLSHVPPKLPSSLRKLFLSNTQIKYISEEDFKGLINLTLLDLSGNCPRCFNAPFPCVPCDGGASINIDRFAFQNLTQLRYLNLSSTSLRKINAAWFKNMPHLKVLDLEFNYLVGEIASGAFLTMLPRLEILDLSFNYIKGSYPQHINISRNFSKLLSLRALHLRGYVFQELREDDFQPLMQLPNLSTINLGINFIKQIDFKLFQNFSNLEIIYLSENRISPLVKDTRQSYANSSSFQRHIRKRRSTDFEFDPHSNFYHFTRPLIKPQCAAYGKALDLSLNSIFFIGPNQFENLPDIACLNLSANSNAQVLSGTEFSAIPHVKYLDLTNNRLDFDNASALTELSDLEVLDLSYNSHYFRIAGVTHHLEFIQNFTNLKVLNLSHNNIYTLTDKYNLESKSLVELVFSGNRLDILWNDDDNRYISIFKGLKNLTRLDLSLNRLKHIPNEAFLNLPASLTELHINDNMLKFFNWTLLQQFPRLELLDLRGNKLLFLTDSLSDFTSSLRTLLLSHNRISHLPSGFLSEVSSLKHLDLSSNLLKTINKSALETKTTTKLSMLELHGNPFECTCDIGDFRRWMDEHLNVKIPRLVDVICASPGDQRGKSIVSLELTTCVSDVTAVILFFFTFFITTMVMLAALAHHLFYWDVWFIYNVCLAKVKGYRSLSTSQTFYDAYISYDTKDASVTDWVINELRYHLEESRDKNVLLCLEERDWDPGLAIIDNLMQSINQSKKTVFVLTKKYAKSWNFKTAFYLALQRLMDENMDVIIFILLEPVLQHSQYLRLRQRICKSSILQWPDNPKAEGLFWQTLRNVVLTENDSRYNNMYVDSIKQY

Structure (SMILES): Cc1nccc(CN(Cc2ccnc(C)n2)C2CCN(c3ccc4[nH]c(-c5cn6ncnc6c(C)c5C)c(C(C)C)c4n3)CC2)n1 [Example 74]
- IC50 (human TLR9): > 50000 nM
- IC50 (human TLR8): 2560 nM
- IC50 (human TLR7): 2470 nM

Structure (SMILES): COc1ncc(CN(Cc2cnc(OC)nc2)C2CCN(c3ccc4[nH]c(-c5cn6ncnc6c(C)c5C)c(C(C)C)c4n3)CC2)cn1 [Example 75]
- IC50 (human TLR9): > 50000 nM
- IC50 (human TLR8): 9.8 nM
- IC50 (human TLR7): 18 nM

Structure (SMILES): Cc1c(-c2[nH]c3ccc(N4CCC(N(Cc5ncnn5C)Cc5ncnn5C)CC4)nc3c2C(C)C)cn2ncnc2c1C [Example 76]
- IC50 (human TLR9): > 50000 nM
- IC50 (human TLR8): 15 nM
- IC50 (human TLR7): 34 nM

Structure (SMILES): Cc1c(-c2[nH]c3ccc(N4CCC(N(C)Cc5csnn5)CC4)nc3c2C(C)C)cn2ncnc2c1C [Example 77]
- IC50 (human TLR9): 11600 nM
- IC50 (human TLR8): 2 nM
- IC50 (human TLR7): 4.8 nM

Structure (SMILES): Cc1c(-c2[nH]c3ccc(N4CCC(N(C)Cc5ncccn5)CC4)nc3c2C(C)C)cn2ncnc2c1C [Example 78]
- IC50 (human TLR9): 3170 nM
- IC50 (human TLR8): 10 nM
- IC50 (human TLR7): 3.7 nM

Structure (SMILES): CC(C)c1c(-c2cc(CO)c3ncnn3c2)[nH]c2ccc(N3CCC(N)CC3)nc12 [Example 79]
- IC50 (human TLR9): 9720 nM
- IC50 (human TLR8): 355 nM
- IC50 (human TLR7): 373 nM

Structure (SMILES): CC(C)c1c(-c2cc(CO)c3ncnn3c2)[nH]c2ccc(N3CCC(NC4CCOCC4)CC3)nc12 [Example 80]
- IC50 (human TLR9): 4560 nM
- IC50 (human TLR8): 1.6 nM
- IC50 (human TLR7): 1.3 nM

Structure (SMILES): CC(C)c1c(-c2cc(CO)c3ncnn3c2)[nH]c2ccc(N3CCC(NC4COC4)CC3)nc12 [Example 81]
- IC50 (human TLR9): 20100 nM
- IC50 (human TLR8): 0.95 nM
- IC50 (human TLR7): 1.3 nM

Structure (SMILES): CC(C)c1c(-c2cc(CO)c3ncnn3c2)[nH]c2ccc(N3CCC(NCC4(C)COC4)CC3)nc12 [Example 82]
- IC50 (human TLR9): 6380 nM
- IC50 (human TLR8): 0.41 nM
- IC50 (human TLR7): 0.77 nM

Structure (SMILES): CC(C)c1c(-c2cc(CO)c3ncnn3c2)[nH]c2ccc(N3CCC(NCC#N)CC3)nc12 [Example 83]
- IC50 (human TLR9): 5440 nM
- IC50 (human TLR8): 6.9 nM
- IC50 (human TLR7): 3.6 nM

Structure (SMILES): CC(C)c1c(-c2cc(CO)c3ncnn3c2)[nH]c2ccc(N3CCC(NCC(=O)N(C)C)CC3)nc12 [Example 84]
- IC50 (human TLR9): > 50000 nM
- IC50 (human TLR8): > 3120 nM
- IC50 (human TLR7): 2200 nM

Structure (SMILES): CC(C)c1c(-c2cc(CO)c3ncnn3c2)[nH]c2ccc(N3CCC(NCC(=O)N(C)C)CC3)nc12 [Example 85]
- IC50 (human TLR9): 5180 nM
- IC50 (human TLR8): 5.8 nM
- IC50 (human TLR7): 1.8 nM

Structure (SMILES): Cc1c(-c2[nH]c3ccc(N4CCCC(NC5COC5)C4)nc3c2C(C)C)cn2ncnc2c1C (stereo not drawn) [Example 86]
- IC50 (human TLR9): > 50000 nM
- IC50 (human TLR8): 2.9 nM
- IC50 (human TLR7): 7.5 nM

Structure (SMILES): Cc1c(-c2[nH]c3ccc(N4CCCC(NCC5(S(C)(=O)=O)CC5)C4)nc3c2C(C)C)cn2ncnc2c1C (stereo not drawn) [Example 87]
- IC50 (human TLR9): > 50000 nM
- IC50 (human TLR8): 0.58 nM
- IC50 (human TLR7): 3.5 nM

Structure (SMILES): Cc1cc(-c2[nH]c3ccc(N4CCNCC4)nc3c2C(C)C)cn2ncnc12 [Example 88]
- IC50 (human TLR9): 3600 nM
- IC50 (human TLR8): 91 nM
- IC50 (human TLR7): 68 nM

Structure (SMILES): COc1cc(-c2[nH]c3ccc(N4CCNCC4)nc3c2C(C)C)cn2ncnc12 [Example 89]
- IC50 (human TLR9): 3260 nM
- IC50 (human TLR8): 0.59 nM
- IC50 (human TLR7): 0.51 nM

Structure (SMILES): COc1cc(-c2[nH]c3ccc(N4CCN(C(=O)CN(C)C)CC4)nc3c2C(C)C)cn2ncnc12 [Example 90]
- IC50 (human TLR9): 5000 nM
- IC50 (human TLR8): 4.2 nM
- IC50 (human TLR7): 0.57 nM

Structure (SMILES): COc1cc(-c2[nH]c3ccc(N4CCN(C)CC4)nc3c2C(C)C)cn2ncnc12 [Example 91]
- IC50 (human TLR9): 6310 nM
- IC50 (human TLR8): 0.53 nM
- IC50 (human TLR7): 0.68 nM

Structure (SMILES): COc1cc(-c2[nH]c3ccc(N4CCN(C(C)C)CC4)nc3c2C(C)C)cn2ncnc12 [Example 92]
- IC50 (human TLR9): 3990 nM
- IC50 (human TLR8): 0.78 nM
- IC50 (human TLR7): 0.87 nM

Structure (SMILES): COc1cc(-c2[nH]c3ccc(N4CCN(C5COC5)CC4)nc3c2C(C)C)cn2ncnc12 [Example 93]
- IC50 (human TLR9): 35000 nM
- IC50 (human TLR8): 7.2 nM
- IC50 (human TLR7): 5.3 nM

Structure (SMILES): COc1cc(-c2[nH]c3ccc(N4CCN(CC#N)CC4)nc3c2C(C)C)cn2ncnc12 [Example 94]
- IC50 (human TLR9): 9350 nM
- IC50 (human TLR8): 1.4 nM
- IC50 (human TLR7): 1 nM

Structure (SMILES): COc1cc(-c2[nH]c3ccc(N4CCN(CCS(C)(=O)=O)CC4)nc3c2C(C)C)cn2ncnc12 [Example 95]
- IC50 (human TLR9): > 50000 nM
- IC50 (human TLR8): 3.6 nM
- IC50 (human TLR7): 4.9 nM

Structure (SMILES): Cc1c(-c2[nH]c3ccc(N4CCN(C)CC4)nc3c2C(C)C)cn2ncnc2c1C [Example 96, 6-(3-isopropyl-5-(4-methylpiperazin-1-yl)-1H-pyrrolo[3,2-b]pyridin-2-yl)-7,8-dimethyl-[1,2,4]triazolo[1,5-a]pyridine]
- IC50 (human TLR9): 9430 nM
- IC50 (human TLR8): 0.28 nM
- IC50 (human TLR7): 1.5 nM

Structure (SMILES): Cc1c(-c2[nH]c3ccc(N4CCN(CC5(C)COC5)CC4)nc3c2C(C)C)cn2ncnc2c1C [Example 97]
- IC50 (human TLR9): > 50000 nM
- IC50 (human TLR8): 4.1 nM
- IC50 (human TLR7): 28 nM

Structure (SMILES): Cc1c(-c2[nH]c3ccc(N4CCN(C(=O)CCN(C)C)CC4)nc3c2C(C)C)cn2ncnc2c1C [Example 98]
- IC50 (human TLR9): 5230 nM
- IC50 (human TLR8): 0.72 nM
- IC50 (human TLR7): 0.74 nM

Structure (SMILES): COc1cc(-c2[nH]c3ccc(N4CCN(C(=O)CCN(C)C)CC4)nc3c2C(C)C)cn2ncnc12 [Example 99]
- IC50 (human TLR9): 4300 nM
- IC50 (human TLR8): 2.9 nM
- IC50 (human TLR7): 0.51 nM

Structure (SMILES): Cc1c(-c2[nH]c3ccc(N4CCN(C(C)C)CC4)nc3c2C(C)C)cn2ncnc2c1C [Example 100]
- IC50 (human TLR9): 6150 nM
- IC50 (human TLR8): 0.55 nM
- IC50 (human TLR7): 3.2 nM

Structure (SMILES): Cc1c(-c2[nH]c3ccc(N4CCN(C5CCOCC5)CC4)nc3c2C(C)C)cn2ncnc2c1C [Example 101]
- IC50 (human TLR9): 6400 nM
- IC50 (human TLR8): 0.25 nM
- IC50 (human TLR7): 3.7 nM

Structure (SMILES): COc1cc(-c2[nH]c3ccc(N4CCN(CC5(C)COC5)CC4)nc3c2C(C)C)cn2ncnc12 [Example 102]
- IC50 (human TLR9): > 50000 nM
- IC50 (human TLR8): 5.1 nM
- IC50 (human TLR7): 12 nM

Structure (SMILES): COc1cc(-c2[nH]c3ccc(N4CCN(C5CCOCC5)CC4)nc3c2C(C)C)cn2ncnc12 [Example 104]
- IC50 (human TLR9): 4160 nM
- IC50 (human TLR8): 0.75 nM
- IC50 (human TLR7): 2.3 nM

Structure (SMILES): Cc1c(-c2[nH]c3ccc(N4CCN(CC(C)(C)O)CC4)nc3c2C(C)C)cn2ncnc2c1C [Example 105, 1-(4-(2-(7,8-dimethyl-[1,2,4]triazolo[1,5-a]pyridin-6-yl)-3-isopropyl-1H-pyrrolo[3,2-b]pyridin-5-yl)piperazin-1-yl)-2-methylpropan-2-ol]
- IC50 (human TLR9): 9240 nM
- IC50 (human TLR8): 0.15 nM
- IC50 (human TLR7): 3.9 nM

Structure (SMILES): COc1cc(-c2[nH]c3ccc(N4CCN(CC(C)(C)O)CC4)nc3c2C(C)C)cn2ncnc12 [Example 106]
- IC50 (human TLR9): 7780 nM
- IC50 (human TLR8): 0.28 nM
- IC50 (human TLR7): 2.2 nM

Structure (SMILES): COc1cc(-c2[nH]c3ccc(N4CCN(CC5CCOC5)CC4)nc3c2C(C)C)cn2ncnc12 (stereo not drawn) [Example 107]
- IC50 (human TLR9): 5630 nM
- IC50 (human TLR8): 0.37 nM
- IC50 (human TLR7): 2.2 nM

Structure (SMILES): COc1cc(-c2[nH]c3ccc(N4CCN(C5CCC5)CC4)nc3c2C(C)C)cn2ncnc12 [Example 108]
- IC50 (human TLR9): 3510 nM
- IC50 (human TLR8): 0.99 nM
- IC50 (human TLR7): 2.5 nM

Structure (SMILES): COc1cc(-c2[nH]c3ccc(N4CCN(CC(C)C)CC4)nc3c2C(C)C)cn2ncnc12 [Example 109]
- IC50 (human TLR9): 8010 nM
- IC50 (human TLR8): 1.3 nM
- IC50 (human TLR7): 3.6 nM

Structure (SMILES): COc1cc(-c2[nH]c3ccc(N4CCN(CCC(C)C)CC4)nc3c2C(C)C)cn2ncnc12 [Example 110]
- IC50 (human TLR9): 4540 nM
- IC50 (human TLR8): 0.76 nM
- IC50 (human TLR7): 1.9 nM

Structure (SMILES): COCC(C)N1CCN(c2ccc3[nH]c(-c4cc(OC)c5ncnn5c4)c(C(C)C)c3n2)CC1 (stereo not drawn) [Example 112]
- IC50 (human TLR9): 6010 nM
- IC50 (human TLR8): 1.2 nM
- IC50 (human TLR7): 2.2 nM

Structure (SMILES): COc1cc(-c2[nH]c3ccc(N4CCN(C5CCC(O)CC5)CC4)nc3c2C(C)C)cn2ncnc12 (stereo not drawn) [Example 113]
- IC50 (human TLR9): 3360 nM
- IC50 (human TLR8): 0.95 nM
- IC50 (human TLR7): 1.4 nM

— patent US10544143B2, “4-azaindole compounds” (BRISTOL-MYERS SQUIBB COMPANY, priority 2017, dated 2020)
